Consider 104 compounds from ChEMBL document CHEMBL3988442, “University of Dundee, Small-Polar-MMV Screening Library” (2021).

pIC50: −log10 of the molar value. Several values for one entry are separate records, joined by “and”; a condition that tells them apart may be missing. Equal values may be shown once.

The experiment deals with Sialic acid-binding Ig-like lectin 9 (Homo sapiens, UniProt Q9Y336). Kind of experiment: Hs-Siglec9 ALPHAscreen SOP 20170721. (In Alpha technology, singlet oxygen from a donor bead excites a nearby acceptor bead.)
Sequence of Sialic acid-binding Ig-like lectin 9 (Q9Y336 whole entry): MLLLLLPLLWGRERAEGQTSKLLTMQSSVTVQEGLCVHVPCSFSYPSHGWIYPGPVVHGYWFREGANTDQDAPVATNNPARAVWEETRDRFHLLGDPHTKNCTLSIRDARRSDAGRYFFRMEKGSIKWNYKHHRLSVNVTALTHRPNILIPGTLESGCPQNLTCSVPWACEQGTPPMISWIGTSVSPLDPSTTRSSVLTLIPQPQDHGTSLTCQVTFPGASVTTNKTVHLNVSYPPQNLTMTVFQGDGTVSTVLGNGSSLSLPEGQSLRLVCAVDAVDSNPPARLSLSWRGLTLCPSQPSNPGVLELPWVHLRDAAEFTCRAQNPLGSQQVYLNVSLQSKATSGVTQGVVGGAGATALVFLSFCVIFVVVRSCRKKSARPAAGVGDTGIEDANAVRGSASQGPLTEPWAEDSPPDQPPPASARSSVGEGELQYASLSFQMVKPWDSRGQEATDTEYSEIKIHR
By pIC50 is commonly meant −log10 of the IC50, conventionally taken in molar units. A higher pIC50 goes with a small IC50. In turn, `O=C(C1CCN(c2nc3nc[nH]c(=O)c3s2)CC1)N1CCCCC1` gave a pIC50 of less than 4.52. Next, `NC(=O)c1csc(N2C[C@@H](CN3CCOCC3)[C@@H](CO)C2)n1`: less than 4.52; `c1cnc(N2CCC3(CCN(CC4CCCC4)CC3)C2)nc1`: less than 4.52.

`CCc1nc(C2CCCN2c2ncc(Br)cn2)no1` (centres undefined) gave a negative logarithm of the IC50 (pIC50) of less than 4.52.

For the compound `FC(F)(F)CCc1ccnc(NCc2csc(N3CCOCC3)n2)n1`, the pIC50 was less than 4.52. Next, `CN(C)C(=O)COC[C@]12COC[C@H]1CN(CC1CCC1)C2`: less than 4.52; `NC(=O)c1csc(N2C[C@@H](CN3CCCCC3)[C@@H](CO)C2)n1`: less than 4.52; `CCn1c(C)cc(C(=O)N2CCC(NC(=O)c3ccc(C)o3)CC2)c1C`: less than 4.52.

`Cc1cc(C(=O)N2CCCS2(=O)=O)c(C)o1` gave a pIC50 of less than 4.52. Next, `Nc1nccc(N2C[C@@H](CN3CCCCC3)[C@@H](CO)C2)n1`: less than 4.52; `c1ccc([C@@H]2CN(Cc3ccncc3)C[C@H]2c2cc[nH]n2)cc1`: less than 4.52; `COCC(=O)N1CCC2(CC1)COc1ccccc1S(=O)(=O)N(C)C2`: less than 4.52. The figure for `COc1cc(C(=O)N2CCC(Nc3cccnc3)CC2)ccc1C` is less than 4.52. Next, `CNC(=O)C1CCN(c2nc3nc[nH]c(=O)c3s2)CC1`: less than 4.52; `CCN1CC2(CCN(C(=O)N(C)C)CC2)COc2ccccc2S1(=O)=O`: less than 4.52. `Cc1oc(C)c(C(=O)NCc2cccnc2)c1C` showed a negative logarithm of the IC50 (pIC50) of less than 4.52. Next, `COCCN(CCOC)C(=O)c1ccoc1C`: less than 4.52. Next, `Cc1cc(C(=O)N2CCC(Nc3cccnc3)CC2)c(C)s1`: less than 4.52; `COc1ccc(C(C)NCc2ccnn2C)cc1Cn1cccn1` (centres undefined): less than 4.52. The figure for `COc1ccc([C@@H]2CN(Cc3ccncc3)C[C@H]2c2cc[nH]n2)cc1` is less than 4.52; for `O=C(N1CCCC1)N1CCO[C@H]2[C@@H](Oc3ccccn3)CC[C@@H]21` it is less than 4.52; for `CN(C)C(=O)COC[C@]12COC[C@H]1CN(Cc1ccoc1)C2` it is less than 4.52. `Cc1occc1C(=O)N1CCOC2(CCCC2)C1` gave a pIC50 of less than 4.52. Next, `CN1CCCN(C[C@@H]2CN(c3nc(C(N)=O)cs3)C[C@@H]2CO)CC1`: less than 4.52; `Cc1csc(CN2C[C@@H]3COC[C@]3(COCC(=O)N(C)C)C2)n1`: less than 4.52.

As to `CCn1ncc2c1C(COC)CN(Cc1nccs1)C2` (centres undefined), the negative-log IC50 (pIC50) was less than 4.52. The figure for `CC(=O)NCCCSC1CCN(c2ccccc2F)C1=O` (centres undefined) is less than 4.52; for `CCCN1Cc2ccccc2NC(=O)C12CCNC2` (centres undefined) it is less than 4.52; for `Cc1cc(C(=O)N2CCO[C@H]3[C@H](Oc4ccccn4)CC[C@@H]32)c(C)[nH]1` it is less than 4.52. Consider `CCn1c(C)cc(C(=O)N2CCC(Nc3cccnn3)CC2)c1C`, for which the pIC50 was less than 4.52. The figure for `CCC(=O)NCC(=O)NCc1cc(Br)ccc1OC(F)F` is less than 4.52; for `CCOC(=O)[C@@H]1[C@@H](O)C(=O)N(C)C12CCN(C(=O)c1ccco1)CC2` it is less than 4.52; for `CCOC(=O)[C@H]1[C@@H](O)C(=O)N(C)C12CCN(C(=O)OC)CC2` it is less than 4.52. Next, `CC(C)CC1(C(=O)NCCc2nncn2C2CC2)CCC1`: less than 4.52. Next, `COC(=O)CC1CCN(C(=O)c2ccc(-n3nnnc3C)cc2)CC1`: less than 4.52; `c1cnc(N2CCC3(CCN(CC4CCOC4)CC3)C2)nc1` (centres undefined): less than 4.52; `CCOC(=O)[C@H]1[C@@H](O)C(=O)N(C)C12CCN(C(=O)CC(C)(C)C)CC2`: less than 4.52. Take `Cc1cc(C(=O)N2CC[C@](C)(O)[C@H](C)C2)c(C)n1C`: the negative logarithm of the IC50 (pIC50) is less than 4.52. The figure for `COCCC1(C(=O)NCCc2nncn2C2CC2)CCC1` is less than 4.52; for `c1ccc([C@@H]2CN(Cc3cccnc3)C[C@H]2c2cc[nH]n2)cc1` it is less than 4.52. For the compound `O=C1Nc2ccccc2CNC12CCN(CC1CCCC1)CC2`, the negative-log IC50 (pIC50) is less than 4.52. Next, `CCn1nnc2c1C(COC)CN(Cc1ccsc1)C2` (centres undefined): less than 4.52; `Cc1nc(CN2C[C@@H]3COC[C@]3(COCC(=O)N(C)C)C2)cs1`: less than 4.52. Next, `Cc1nc(C)c(C(=O)N2CCC(Nc3cccnc3)CC2)s1`: 5.04 and 5.15 and 5.03 and 5.41; `COCCN1CCC2(CC1)COc1ccccc1S(=O)(=O)N(C)C2`: less than 4.52; `CS(=O)(=O)N1Cc2ccnn2CC(C(=O)NCc2cccnc2)C1` (centres undefined): less than 4.52. `CCOC(=O)[C@H]1[C@@H](O)C(=O)N(C)C12CCN(S(=O)(=O)CC)CC2` gave a pIC50 of less than 4.52.

Compound `c1csc(CN2Cc3nccn3CC(Cn3cncn3)C2)n1` (centres undefined) showed a pIC50 of less than 4.52.

`CCOC(=O)Cc1csc(NC(=O)c2cc3n(n2)CCCO3)n1` had a pIC50 of less than 4.52. Next, `O=C(c1cscn1)N1CCO[C@H]2[C@@H](Oc3ccccn3)CC[C@@H]21`: less than 4.52. The figure for `COC(=O)C(O)C1CCN(CCc2ccccn2)CC1` (centres undefined) is less than 4.52; for `COc1ccc(C(C)NCc2cscn2)cc1Cn1cccn1` (centres undefined) it is less than 4.52. The figure for `CC(C)n1cnnc1CCNCc1cn(CCC(N)=O)c2ccccc12` is less than 4.52; for `Cc1cnn(CC2CCCN2C(=O)c2cccc(-n3ccc(C)n3)c2)c1` (centres undefined) it is less than 4.52.

Turning to `CC(C)N(C)CC(=O)NCc1ccccc1N1CCN(C)CC1`, the pIC50 is less than 4.52. The compound `O=C(NCCc1nncn1C1CC1)C1(c2ccccc2)CCC1` had a pIC50 of less than 4.52.

On to `Cc1cc(CNC(=O)c2cnoc2C)c(C)o1`, for which the pIC50 was less than 4.52. Next, `O=C(C1=CCCC1)N1CCO[C@H]2[C@@H](Oc3ccccn3)CC[C@@H]21`: less than 4.52; `O=C(NCCc1nncn1C1CC1)C1SCCc2sccc21` (centres undefined): less than 4.52; `CCN(C(=O)c1cc(C)oc1C)C1CC1`: less than 4.52. Next, `CSc1nccc(N2C[C@@H](CN3CCCCC3)[C@@H](CO)C2)n1`: less than 4.52. Take `CN(C)CC(=O)N1CCC2(CC1)COc1ccccc1S(=O)(=O)N(C)C2`: the pIC50 is less than 4.52. Next, `CCOC(=O)CNC(=O)c1cc2n(n1)CCCO2`: less than 4.52; `CN1Cc2ccccc2NC(=O)C12CCNC2` (centres undefined): less than 4.52.

`NC(=O)c1csc(N2C[C@@H](CN3CCC(O)CC3)[C@@H](CO)C2)n1` had a pIC50 of less than 4.52. Next, `CC(=O)N1Cc2ccnn2CC(C(=O)NCc2cccnc2)C1` (centres undefined): less than 4.52; `CCS(=O)(=O)CCNC(=O)c1cc2n(n1)CCCO2`: less than 4.52. Next, `c1cc2occc2c(N2CCCC(c3nncn3C3CC3)C2)n1` (centres undefined): less than 4.52; `N#Cc1ccc2c(c1)CN(C(=O)c1nc[nH]n1)C2c1cnco1` (centres undefined): less than 4.52; `O=C(C1CCOCC1)N1CCO[C@H]2[C@H](Oc3ccccn3)CC[C@@H]21`: less than 4.52. Next, `Cc1occc1C(=O)N1CCO[C@H]2[C@H](Oc3cccnc3)CC[C@@H]21`: less than 4.52; `CCOC(=O)CNC(=O)c1cccnc1Oc1ccc(Cl)cc1`: less than 4.52. `Cc1cc(C(=O)N2CCNC(=O)CC2)c(C)n1CC(F)(F)F` gave a pIC50 of less than 4.52. The compound `Cc1cc(S(=O)(=O)NCC(C)(C)N)c(F)cc1F` gave a pIC50 of less than 4.52. Consider `Cc1cccc(CN2C[C@@H]3COC[C@]3(COCC(=O)N(C)C)C2)n1`, for which the pIC50 is less than 4.52. The figure for `Cc1cc(CNC(=O)c2ccno2)c(C)o1` is less than 4.52; for `O=C(NCCc1nncn1C1CC1)C1(Cc2ccccc2)CCC1` it is less than 4.52. The figure for `Cc1cncc(C(=O)N2CCO[C@H]3[C@H](Oc4ccccn4)CC[C@@H]32)c1` is less than 4.52; for `Cc1nc(CC(=O)NCc2csc(N3CCCC3)n2)cs1` it is less than 4.52.

`CC(c1ccc(Cl)cc1)N1CCN(CCNS(C)(=O)=O)CC1` (centres undefined) showed a pIC50 of less than 4.52. Next, `CCc1nc(C2CCCN(c3ncc(Br)cn3)C2)no1` (centres undefined): less than 4.52; `CCOC(=O)[C@H]1[C@@H](O)C(=O)N(C)C12CCN(C(=O)CC(C)C)CC2`: less than 4.52; `CC(C)c1cc(C(=O)N2CCCC(c3cc(=O)nc4n3CCC4)C2)no1` (centres undefined): less than 4.52. The figure for `CN(C)C(=O)COC[C@]12COC[C@H]1CN(Cc1ccccc1)C2` is less than 4.52; for `CCc1cc(N2CCC(N3CCSCC3)CC2)n2nccc2n1` it is less than 4.52. The figure for `CCNC(=O)c1nnn(Cc2ccccc2)c1OC` is less than 4.52; for `O=C(NC1CC1)C1CCN(c2nc3nc[nH]c(=O)c3s2)CC1` it is less than 4.52. `CCn1ncc2c1C(COC)CN(Cc1ccc(OC)cc1)C2` (centres undefined) gave a pIC50 of less than 4.52. The figure for `CN1CC2(CCN(C(=O)C3CCC3)CC2)COc2ccccc2S1(=O)=O` is less than 4.52; for `CCOC(=O)[C@H]1[C@@H](O)C(=O)N(C)C12CCN(C(=O)c1ccccc1)CC2` it is less than 4.52; for `COc1ccc(OC)c(C(=O)N2CCC(Nc3cccnc3)CC2)c1` it is less than 4.52.

For `CCc1cc(N2CC(N3CCCCC3C)C2)n2nccc2n1` (centres undefined), the negative logarithm of the IC50 (pIC50) is less than 4.52. The compound `CCOC(=O)[C@H]1[C@@H](O)C(=O)N(C)C12CCN(C(=O)OCC)CC2` showed a negative-log IC50 (pIC50) of less than 4.52. The figure for `Cc1ccsc1C(=O)N1CCC(Nc2cccnc2)CC1` is 4.84 and < 4.52; for `CC(=O)NCCCSC1CCN(c2c(F)cccc2F)C1=O` (centres undefined) it is less than 4.52. The figure for `Cc1cc(C(=O)NC2CC(=O)N(C(C)C)C2=O)c(C)n1C(C)C` (centres undefined) is less than 4.52; for `CCn1ncnc1C1CC(=O)NCc2nc(N3CCCC3)sc21` (centres undefined) it is less than 4.52; for `COC(=O)CC1CCN(C(=O)c2ccccc2-n2nnnc2C)CC1` it is less than 4.52. Next, `CCn1ncc2c1C(COC)CN(Cc1ccco1)C2` (centres undefined): less than 4.52.

In turn, `O=C1Nc2ccccc2CNC12CCN(CC1CCNC1)CC2` (centres undefined) gave a pIC50 of less than 4.52. Next, `CCn1c(C)cc(C(=O)N2CCC(NC(=O)c3cc(C)no3)CC2)c1C`: less than 4.52; `CN(C)C(=O)COC[C@]12COC[C@H]1CN(CCc1ccccc1)C2`: less than 4.52; `Cc1nc(C2CCCN(c3ncc(Br)cn3)C2)no1` (centres undefined): less than 4.52. The figure for `FC(F)(F)c1cc(C2CCCN(c3ncccn3)C2)n2ccnc2n1` (centres undefined) is less than 4.52.
